# Where two headings read alike, the source gives them in different places.
# Assays:
# [1] = cytotoxicity in Drosophila l(2)mbn cells; format: cell-based; settings: Drosophila, l(2)mbn cells (larval blood cell-derived)
# Experimental: (§1) We screened the DDPs on the Drosophila assay system for cytotoxicity, inhibitory activity of innate immune signalling and insecticidal activity. The cytotoxicity of the DDPs was evaluated using two cell lines, embryonic macrophage-derived DL1 cells[58]–[60] and larval blood cell-derived l(2)mbn cells, and their IC50 values are listed in Supplementary Table 23.
# [2] = tested on: l(2)mbn cells; assay: cytotoxicity in Drosophila l(2)mbn cells; format: cell-based; settings: for Luminescence Raw1: replicate 1; for Luminescence Raw2: replicate 2; for % viability, viability 1: replicate 1, relative to DMSO 1%; for % viability, viability 2: replicate 2, relative to DMSO 1%; for IC50: cytotoxicity
# Experimental: as §1
# [3] = tested on: human immunodeficiency virus-1 (HIV-1); assay: anti-HIV MAGI assay; format: cell-based; settings: anti-HIV; single determinations; read-out: Efficacy (EC50)
# Text: We examined the inhibitory activities of DDPs against various species of bacteria (both gram-negative and gram-positive bacteria), fungi and viruses. […] In contrast, preliminary screening of the DDPs for anti-viral agents with hepatitis B virus (HBV), measles virus (MV), Epstein-Barr virus (EBV), herpes simplex virus (HSV) and human immunodeficiency virus-1 (HIV-1) indicated their selective inhibition of HIV.
# [4] = tested on: MCF-7 cells; assay: cell cytotoxic effects against MCF-7 cells (72 h), A490; format: cell-based, human; settings: MCF-7, 72 h
# [5] = cytotoxicity in Drosophila DL1 cells; format: cell-based; settings: Drosophila, DL1 cells (embryonic macrophage-derived), DL1 cells
# Experimental: as §1
# [6] = tested on: DL1 cells; assay: cytotoxicity in Drosophila DL1 cells; format: cell-based; settings: DL1 cells; for % viability, viability 1: replicate 1, relative to DMSO 1%; for % viability, viability 2: replicate 2, relative to DMSO 1%; for IC50: cytotoxicity
# Experimental: as §1
# [7] = replicate 1, relative to DMSO 1%, read-out: % viability, viability 1
# [8] = replicate 2, relative to DMSO 1%, read-out: % viability, viability 2
# [9] = average of two replicates, read-out: IC50 Average
# [10] = replicate 1, read-out: IC50 (1)
# [11] = replicate 2, read-out: IC50 (2)
structure (smiles),measurement,setting,value
"C=C1CCC2C(C)(CCC=C(C)C)C(O)CCC2(C)C1Cc1c(O)c(C)c(C)oc1=O (stereo not drawn) [Compound 9, higginsianin B]",viability at 0.04 µM,[1]; [7],90.8%
same,viability at 0.04 µM,[1]; [8],91.3%
same,viability at 0.2 µM,[1]; [7],92.2%
same,viability at 0.2 µM,[1]; [8],95.4%
same,viability at 1 µM,[1]; [7],85%
same,viability at 1 µM,[1]; [8],84.3%
same,viability at 20 µM,"[1]; 20 µM, replicate 2, relative to DMSO 1%, read-out: % viability, viability 2",3.01%
same,Luminescence Raw1,[2]; 0.04 µM,5700406
same,Luminescence Raw2,[2]; 0.04 µM,5730357
same,Luminescence Raw1,[2]; 0.2 µM,5787371
same,Luminescence Raw2,[2]; 0.2 µM,5991618
same,Luminescence Raw1,[2]; 1 µM,5334874
same,Luminescence Raw2,[2]; 1 µM,5292296
same,Luminescence Raw1,[2]; 4 µM,375575
same,"% viability, viability 1",[2]; 4 µM,5.981%
same,Luminescence Raw2,[2]; 4 µM,295889
same,"% viability, viability 2",[2]; 4 µM,4.712%
same,Luminescence Raw1,[2]; 10 µM,141567
same,"% viability, viability 1",[2]; 10 µM,2.255%
same,Luminescence Raw2,[2]; 10 µM,144091
same,"% viability, viability 2",[2]; 10 µM,2.295%
same,Luminescence Raw1,[2]; 20 µM,140485
same,"% viability, viability 1",[2]; 20 µM,2.2373%
same,Luminescence Raw2,[2]; 20 µM,188801
same,IC50,[2]; [9],1540 nM
same,IC50,"[2]; average±SEM, read-out: IC50",1540 ± 10 nM
same,IC50,[2]; [10],1540 nM
same,IC50,[2]; [11],1540 nM
same,EC50,[3],> 10000 nM
same,viability at 0.1 µM,"[4]; Homo sapiens, MCF7, 72 h, 0.1 µM (DMSO 0.002%), read-out: A490 (control =1) ave",53.1%
same,viability at 1 µM,"[4]; Homo sapiens, MCF7, 72 h, 1 µM (DMSO 0.02%), read-out: A490 (control =1) ave",95.5%
same,viability at 10 µM,"[4]; Homo sapiens, MCF7, 72 h, 10 µM (DMSO 0.2%), read-out: A490 (control =1) ave",27.3%
same,A490 ave,"[4]; 0.1 µM (DMSO 0.002%), control 1.064",0.565
same,A490 ave,"[4]; 1 µM (DMSO 0.02%), control 1.104",1.055
same,A490 ave,"[4]; 10 µM (DMSO 0.2%), control 1.049",0.286
same,viability at 0.04 µM,"[5]; 0.04 µM, replicate 2, relative to DMSO 1%, read-out: % viability, viability 2",202%
same,viability at 0.2 µM,"[5]; 0.2 µM, replicate 1, relative to DMSO 1%, read-out: % viability, viability 1",190%
same,viability at 4 µM,[5]; [7],20.9%
same,viability at 4 µM,[5]; [8],22.6%
same,viability at 10 µM,[5]; [7],20.4%
same,viability at 10 µM,[5]; [8],21.1%
same,viability at 20 µM,[5]; [7],19.2%
same,viability at 20 µM,[5]; [8],18%
same,Luminescence Raw1,"[6]; 0.04 µM, replicate 1",3124696
same,"% viability, viability 1",[6]; 0.04 µM,227.835%
same,Luminescence Raw2,"[6]; 0.04 µM, replicate 2",2770120
same,Luminescence Raw1,"[6]; 0.2 µM, replicate 1",2602758
same,Luminescence Raw2,"[6]; 0.2 µM, replicate 2",2435040
same,"% viability, viability 2",[6]; 0.2 µM,177.549%
same,Luminescence Raw1,"[6]; 1 µM, replicate 1",371891
same,"% viability, viability 1",[6]; 1 µM,27.1162%
same,Luminescence Raw2,"[6]; 1 µM, replicate 2",463117
same,"% viability, viability 2",[6]; 1 µM,33.7678%
same,Luminescence Raw1,"[6]; 4 µM, replicate 1",286075
same,Luminescence Raw2,"[6]; 4 µM, replicate 2",310594
same,Luminescence Raw1,"[6]; 10 µM, replicate 1",279225
same,Luminescence Raw2,"[6]; 10 µM, replicate 2",288960
same,Luminescence Raw1,"[6]; 20 µM, replicate 1",263360
same,Luminescence Raw2,"[6]; 20 µM, replicate 2",246413
same,IC50,[6]; [9],361 nM
same,IC50,"[6]; average±SEM, read-out: IC50",360 ± 30 nM
same,IC50,[6]; [10],328 nM
same,IC50,[6]; [11],394 nM
